From patent US20250368645A1, “BETA CARBOLINE ANALOGUES AS SELECTIVE AND BIASED KAPPA OPIOID RECEPTORS AGONISTS FOR TREATING VARIOUS ASSOCIATED PATHOPHYSIOLOGICAL CONDITIONS” (COUNCIL OF SCIENTIFIC AND INDUSTRIAL RESEARCH, priority 2022, published 2025)

What was measured:
Format in all cases: cell-based
DOR = DOR (Homo sapiens, UniProt P41143); test: GloSensor assay at DOR; details: given as Log IC50 (negative values)
human KOR = human KOR (Homo sapiens, UniProt P41145); test: GloSensor assay, Gi-mediated cAMP inhibition in HEK-293T cells transfected with human KOR; details: given as Log IC50 (negative values); agonist activity, inhibition of FSK-stimulated cAMP; read-out: GloSensor Assay (Log IC50) KOR (converted)
MOR = MOR (Homo sapiens, UniProt P35372); test: GloSensor assay at MOR; details: given as Log IC50 (negative values)
Chain of MOR (P35372 whole entry): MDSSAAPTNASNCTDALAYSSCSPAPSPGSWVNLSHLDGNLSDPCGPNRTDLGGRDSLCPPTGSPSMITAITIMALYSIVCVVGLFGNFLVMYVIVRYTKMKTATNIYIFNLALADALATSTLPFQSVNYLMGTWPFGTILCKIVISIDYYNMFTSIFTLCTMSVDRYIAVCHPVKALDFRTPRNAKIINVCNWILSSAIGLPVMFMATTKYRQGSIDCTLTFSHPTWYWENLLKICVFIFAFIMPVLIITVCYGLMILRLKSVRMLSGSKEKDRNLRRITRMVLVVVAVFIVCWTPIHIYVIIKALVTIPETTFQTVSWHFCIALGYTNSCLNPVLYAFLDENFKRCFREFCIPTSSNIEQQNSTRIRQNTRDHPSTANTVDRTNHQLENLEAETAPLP

Chain of human KOR (P41145 whole entry): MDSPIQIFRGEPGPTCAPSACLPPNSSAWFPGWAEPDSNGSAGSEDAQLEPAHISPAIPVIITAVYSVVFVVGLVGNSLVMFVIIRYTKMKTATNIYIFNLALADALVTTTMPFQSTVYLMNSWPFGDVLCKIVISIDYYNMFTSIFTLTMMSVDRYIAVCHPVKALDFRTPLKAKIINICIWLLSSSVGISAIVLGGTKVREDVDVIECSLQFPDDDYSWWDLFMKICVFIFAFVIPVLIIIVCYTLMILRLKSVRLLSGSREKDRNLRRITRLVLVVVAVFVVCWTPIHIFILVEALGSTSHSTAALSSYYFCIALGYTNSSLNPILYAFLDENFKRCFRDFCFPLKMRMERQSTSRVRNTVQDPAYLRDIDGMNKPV
Chain of DOR (P41143 whole entry): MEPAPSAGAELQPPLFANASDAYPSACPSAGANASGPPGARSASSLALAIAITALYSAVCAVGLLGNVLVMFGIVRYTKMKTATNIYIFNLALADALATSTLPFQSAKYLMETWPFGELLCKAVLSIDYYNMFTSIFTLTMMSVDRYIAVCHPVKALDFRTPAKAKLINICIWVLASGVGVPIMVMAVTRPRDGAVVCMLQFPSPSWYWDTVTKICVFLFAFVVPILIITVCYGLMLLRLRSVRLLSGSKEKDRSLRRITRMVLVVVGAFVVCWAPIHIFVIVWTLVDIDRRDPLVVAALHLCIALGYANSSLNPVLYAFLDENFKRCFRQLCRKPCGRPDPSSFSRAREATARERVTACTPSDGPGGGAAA

| SMILES | IC50 (DOR) [µM] | IC50 (human KOR) [µM] | IC50 (MOR) [µM] |
| --- | --- | --- | --- |
| Fc1cccc(-c2c3c4[nH]c5ccccc5c4cc[n+]3cn2-c2ccc(Cl)cc2)c1 [8aic, 2-(4-Chlorophenyl)-1-(3-fluorophenyl)-2,11-dihydrolmidazo[1′,5′:1,2]pyrido[3,4-b]indol-4-ium chloride] | > 10 | 0.0912 | > 10 |
| Clc1cccc(-n2c[n+]3ccc4c5ccccc5[nH]c4c3c2-c2ccccc2)c1 [8aaf, 2-(3-Chlorophenyl)-1-phenyl-2,11-dihydroimidazo[1′,5′:1,2]pyrido[3,4-b]indol-4-ium chloride] | > 10 | > 10 | > 10 |
| c1ccc(-c2c3c4[nH]c5ccccc5c4cc[n+]3cn2-c2ccccc2)cc1 [8aaa, 1,2-Diphenyl-2,11-dihydroimidazo[1′,5′:1,2]pyrido[3,4-b]indol-4-ium chloride] | > 10 | > 10 | > 10 |
| Clc1ccc(-n2c[n+]3ccc4c5ccccc5[nH]c4c3c2-c2ccccc2)cc1 [8aac, 2-(4-Chlorophenyl)-1-phenyl-2,11-dihydroimidazo[1′,5′:1,2]pyrido[3,4-b]indol-4-ium chloride] | > 10 | 0.126 | > 10 |
| Clc1ccccc1-c1c2c3[nH]c4ccccc4c3cc[n+]2cn1-c1ccc(Br)cc1 [8aeb, 2-(4-Bromophenyl)-1-(2-chlorophenyl)-2,11-dihydroimidazo[1′,5′:1,2]pyrido[3,4-b]indol-4-ium chloride] | 2 | > 10 | 1.26 |
| COC(=O)c1cc2c3ccccc3[nH]c2c2c(C)n(-c3ccc(F)cc3)c[n+]12 [8bpd, 2-(4-Fluorophenyl)-5-(methoxycarbonyl)-1-methyl-2,11-dihydroimidazo[1′,5′:1,2]pyrido[3,4-b]indol-4-ium chloride] | > 10 | 3.16 | > 10 |
| c1ccc(-n2c[n+]3ccc4c5ccccc5[nH]c4c3c2-c2cc3ccccc3o2)cc1 [8amd, 1-(Benzofuran-2-yl)-2-phenyl-2,11-dihydroimidazo[1′,5′:1,2]pyrido[3,4-b]indol-4-ium chloride] | > 10 | 0.0398 | > 10 |
| COC(=O)c1cc2c3ccccc3[nH]c2c2c(-c3ccc(C)cc3)n(-c3ccc(F)cc3)c[n+]12 [8bkd, 2-(4-Fluorophenyl)-5-(methoxycarbonyl)-1-(p-tolyl)-2,11-dihydroimidazo[1′,5′:1,2]pyrido[3,4-b]indol-4-iumchloride] | > 10 | > 10 | > 10 |
| Clc1ccc(-n2c[n+]3c4ccccc4c4c5ccccc5[nH]c4c3c2-c2ccc(Br)cc2)cc1 [12bd, 1-(4-Bromophenyl)-2-(4-chlorophenyl)-2,13-dihydroimidazo[1,5-a]indolo[2,3-c]quinolin-4-ium chloride] | > 10 | > 10 | > 10 |
| COc1cc(-c2c3c4[nH]c5ccccc5c4cc[n+]3cn2-c2ccc(F)cc2)cc(OC)c1OC [8apd, 2-(4-Fluorophenyl)-1-(3,4,5-trimethoxyphenyl)-2,11-dihydroimidazo[1′,5′:1,2]pyrido[3,4-b]indol-4-ium chloride] | > 10 | > 10 | > 10 |
| COc1ccc(-n2c[n+]3ccc4c5ccccc5[nH]c4c3c2-c2ccc(Cl)cc2)cc1 [8adg, 1-(4-Chlorophenyl)-2-(4-methoxyphenyl)-2,11-dihydroimidazo[1′,5′:1,2]pyrido[3,4-b]indol-4-ium chloride] | > 10 | 0.794 | > 10 |
| Cn1c2ccccc2c2cc[n+]3cn(-c4ccc(F)cc4)c(-c4ccc(Br)cc4)c3c21 [8dbd, 1-(4-Bromophenyl)-2-(4-fluorophenyl)-11-methyl-2,11-dihydroimidazo[1′,5′:1,2]pyrido[3,4-b]indol-4-iumchloride] | > 10 | > 10 | > 10 |
| Clc1ccc(-c2c3c4[nH]c5ccccc5c4cc[n+]3cn2-c2cccc(Br)c2)cc1 [8ade, 2-(3-Bromophenyl)-1-(4-chlorophenyl)-2,11-dihydroimidazo[1′,5′:1,2]pyrido[3,4-b]indol-4-ium chloride] | > 10 | > 10 | > 10 |
| Brc1ccc(-n2c[n+]3ccc4c5ccccc5[nH]c4c3c2-c2ccccc2)cc1 [8aab, 2-(4-Bromophenyl)-1-phenyl-2,11-dihydroimidazo[1′,5′:1,2]pyrido[3,4-b]indol-4-ium chloride] | > 10 | 0.0661 | > 10 |
| Clc1ccc(-c2c3c4[nH]c5ccccc5c4c4ccccc4[n+]3cn2-c2ccc(Br)cc2)cc1 [12db, 2(4-Bromophenyl-1-(4-chlorophenyl)-2,13-dihydroimidazo[1,5-a]indolo[2,3-c]quinolin-4-ium chloride] |  | 0.251 |  |

More lines, now with the values ahead:

| IC50 (DOR) [µM] | IC50 (human KOR) [µM] | IC50 (MOR) [µM] | SMILES |
| --- | --- | --- | --- |
| > 10 | > 10 | > 10 | COc1ccc(-n2c[n+]3ccc4c5ccccc5[nH]c4c3c2-c2ccc(Br)cc2)cc1 [8abg, 1-(4-Bromophenyl)-2-(4-methoxyphenyl)-2,11-dihydrolmidazo[1′,5′:1,2]pyrido[3,4-b]indol-4-ium chloride] |
| > 10 | 0.263 | > 10 | Fc1ccc(Cn2c[n+]3ccc4c5ccccc5[nH]c4c3c2-c2ccc(Br)cc2)cc1 [9aab, 1-(4-Bromophenyl)-2-(4-fluorobenzyl)-2,11-dihydroimidazo[1′,5′:1,2]pyrido[3,4-b]indol-4-ium chloride] |
| > 10 | > 10 | > 10 | FC(F)(F)c1ccc(Cn2c[n+]3ccc4c5ccccc5[nH]c4c3c2-c2ccc(Br)cc2)cc1 [9aad, 1-(4-Bromophenyl)-2-(4-(trifluoromethyl)benzyl)-2,11-dihydroimidazo[1′,5′:1,2]pyrido[3,4-b]indol-4-ium chloride] |
| > 10 | 0.0708 | > 10 | Brc1ccc(-c2c3c4[nH]c5ccccc5c4cc[n+]3cn2-c2ccccc2)cc1 [8aba, 1-(4-Bromophenyl)-2-phenyl-2,11-dihydroimidazo[1′,5′:1,2]pyrido[3,4-b]indol-4-ium chloride] |
| > 10 | > 10 | > 10 | Fc1ccc(-c2c3c4[nH]c5ccccc5c4cc[n+]3cn2-c2ccc(Br)cc2)cc1 [8agb, 2-(4-Bromophenyl)-1-(4-fluorophenyl)-2,11-dihydroimidazo[1′,5′:1,2]pyrido[3,4-b]indol-4-ium chloride] |
| > 10 | > 10 | > 10 | FC(F)(F)Oc1ccc(-n2c[n+]3ccc4c5ccccc5[nH]c4c3c2-c2ccc(Br)cc2)cc1 [8abh] |
| > 10 | > 10 | > 10 | Clc1ccc(-c2c3c4[nH]c5ccccc5c4cc[n+]3cn2Cc2ccsc2)cc1 [9acj, 1-(4-Chlorophenyl)-2-(thiophen-3-ylmethyl)-2,11-dihydroimidazo[1′,5′:1,2]pyrido[3,4-b]indol-4-ium chloride] |
| > 10 | > 10 | > 10 | Fc1ccc(-c2c3c4[nH]c5ccccc5c4cc[n+]3cn2-c2cccc(Br)c2)cc1 [8age, 2-(3-Bromophenyl)-1-(4-fluorophenyl)-2,11-dihydroimidazo[1′,5′:1,2]pyrido[3,4-b]indol-4-ium chloride] |
| > 10 | 0.955 | > 10 | COc1ccc(Cn2c[n+]3ccc4c5ccccc5[nH]c4c3c2-c2ccc(Cl)cc2)cc1OC [9abg, 1-(4-Chlorophenyl)-2-(3,4-dimethoxybenzyl)-2,11-dihydroimidazo[1′,5′:1,2]pyrido[3,4-b]indol-4-ium chloride] |
| > 10 | > 10 | > 10 | Clc1cccc(-n2c[n+]3ccc4c5ccccc5[nH]c4c3c2-c2ccc(Br)cc2)c1 [8abf, 1-(4-Bromophenyl)-2-(3-chlorophenyl)-2,11-dihydroimidazo[1′,5′:1,2]pyrido[3,4-b]indol-4-ium chloride] |
| > 10 | > 10 | > 10 | Fc1ccc(-n2c[n+]3ccc4c5ccccc5[nH]c4c3c2-c2ccc(Br)cc2)c(Cl)c1 [8abl, 1-(4-Bromophenyl)-2-(2-chloro-4-fluorophenyl)-2,11-dihydrolmidazo[1′,5′:1,2]pyrido[3,4-b]indol-4-ium chloride] |
| > 10 | > 10 | > 10 | Fc1ccc(-c2c3c4[nH]c5ccccc5c4cc[n+]3cn2-c2ccc(F)cc2)cc1 [8agd, 1,2-Bis(4-fluorophenyl)-2,11-dihydroimidazo[1′,5′:1,2]pyrido[3,4-b]indol-4-ium chloride] |
| > 10 | 0.0759 | > 10 | COc1ccc(Cn2c[n+]3ccc4c5ccccc5[nH]c4c3c2-c2ccc(Cl)cc2)cc1 [9abe, 1-(4-Chlorophenyl)-2-(4-methoxybenzyl)-2,11-dihydrolmidazo[1′,5′:1,2]pyrido[3,4-b]indol-4-ium chloride] |
| > 10 | > 10 | > 10 | O=[N+]([O-])c1ccc(-c2c3c4[nH]c5ccccc5c4cc[n+]3cn2-c2ccc(F)cc2)cc1 [8ald, 2-(4-Fluorophenyl)-1-(4-nitrophenyl)-2,11-dihydrolmidazo[1′,5′:1,2]pyrido[3,4-b]indol-4-ium chloride] |
| > 10 | 3.31 | > 10 | COc1ccc(Cn2c[n+]3ccc4c5ccccc5[nH]c4c3c2-c2ccc(Br)cc2)cc1 [9aae] |
| > 10 | 0.251 | 0.251 | Clc1ccccc1-n1c[n+]2ccc3c4ccccc4[nH]c3c2c1-c1ccc(Br)cc1 [8abj, 1-(4-Bromophenyl)-2-(2-chlorophenyl)-2,11-dihydroimidazo[1′,5′:1,2]pyrido[3,4-b]indol-4-ium] |
| > 10 | > 10 | > 10 | Fc1ccc(-c2c3c4[nH]c5ccccc5c4cc[n+]3cn2-c2cccc(Cl)c2)cc1 [8agf, 2-(3-Chlorophenyl)-1-(4-fluorophenyl)-2,11-dihydroimidazo[1′,5′:1,2]pyrido[3,4-b]indol-4-ium chloride] |
